Source: patent US11660293B2, “Substituted 2-azabicyclo[3.1.1]heptane and 2-azabicyclo[3.2.1]octane derivatives as orexin receptor antagonists” (Chronos Therapeutics Limited, priority 2017, dated 2023)

Assays:
[1] = target: human Orexin type 2 receptors (Homo sapiens (Human), UniProt O43614); assay: Scintillation Proximity Assay (SPA) binding assay, [3H]EMPA displacement, HEK-hOX2 membranes
Procedure: Scintillation Proximity Assay (SPA) Binding Assays
CHO cells stably transfected with human Orexin type 1 receptors (CHO-hOX1) or HEK-293 cells transiently transfected with human Orexin type 2 receptors (HEK-hOX2) were collected after 16 h induction with 5 mM sodium butyrate. The cell pellets were re-suspended, homogenized in 15 mM Tris/HCl pH=7.5, 1 mM EGTA, 0.3 mM EDTA, 2 mM MgCl2, protease inhibitors and centrifuged at 40,000 g (20 min, 4° C.). After re-suspension, homogenization and centrifugation as above, the final pellets were re-suspended in 75 mM Tris/HCl pH=7.5, 1 mM EGTA, 0.3 mM EDTA, 12.5 mM MgCl2, 250 mM Sucrose, protease inhibitors, divided into aliquots and frozen down at −80° C.
CHO-hOX1 cell membranes (6 μg ml^−1) or HEK-hOX2 membranes (8 μg ml^−1) were pre-coupled with 1.0 mg ml^−1 of Wheatgerm Agglutinin-coated Yttrium Silicate (YSi-WGA) SPA beads (Perkin Elmer) in buffer containing 25 mM HEPES pH=7.4, 1 mM CaCl2), 5 mM MgCl2, 0.01% (w/v) BSA, 0.02% (w/v) Pluronic F-127 by shaking at room temperature for 2.5-3 h.
(§1) The binding was performed in a final volume of 200 μl. 100 μl of hOX1 or hOX2 beads-membranes suspension were added to 100 μl of [^3H]SB-674042 or [^3H]EMPA solutions (radioligand concentration 2 nM final in the assay), into the 96-well Isoplates containing the 2 μl/well of compounds to be tested. Nonspecific binding was measured in the presence of 1 μM Almorexant. Assay plates were then incubated at room temperature for 3 h before being counted in a Microbeta scintillation counter (PerkinElmer).
Data were analysed by non-linear regression analysis using XLfit Software.

[2] = target: human Orexin type 1 receptors (Homo sapiens (Human), UniProt O43613); assay: Scintillation Proximity Assay (SPA) binding assay, [3H]SB-674042 displacement, CHO-hOX1 membranes
Chain of human Orexin type 1 receptors (O43613 whole entry): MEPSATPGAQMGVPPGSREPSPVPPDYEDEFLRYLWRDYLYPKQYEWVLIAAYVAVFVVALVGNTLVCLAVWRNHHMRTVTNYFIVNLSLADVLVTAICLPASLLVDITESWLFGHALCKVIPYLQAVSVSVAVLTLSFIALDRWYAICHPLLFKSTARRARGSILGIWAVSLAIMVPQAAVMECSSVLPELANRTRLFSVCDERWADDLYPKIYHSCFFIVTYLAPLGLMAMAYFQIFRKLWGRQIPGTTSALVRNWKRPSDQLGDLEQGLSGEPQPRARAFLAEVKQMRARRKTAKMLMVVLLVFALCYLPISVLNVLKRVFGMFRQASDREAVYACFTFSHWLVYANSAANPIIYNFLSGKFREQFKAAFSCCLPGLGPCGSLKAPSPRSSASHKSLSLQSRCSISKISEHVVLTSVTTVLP
Procedure: as §1, with “Scintillation Proximity Assay (SPA) Binding Assays CHO cells stably transfected with human Orexin type 1 receptors (CHO-hOX1) or HEK-293 cells transiently transfected with human Orexin type 2 receptors (HEK-hOX2) were collected after 16 h induction with 5 mM sodium butyrate. […] The” for “The”, “(PerkinElmer). Data were analysed by non-linear regression analysis using XLfit Software.” for “(PerkinElmer).”

Chain of human Orexin type 2 receptors (O43614 whole entry): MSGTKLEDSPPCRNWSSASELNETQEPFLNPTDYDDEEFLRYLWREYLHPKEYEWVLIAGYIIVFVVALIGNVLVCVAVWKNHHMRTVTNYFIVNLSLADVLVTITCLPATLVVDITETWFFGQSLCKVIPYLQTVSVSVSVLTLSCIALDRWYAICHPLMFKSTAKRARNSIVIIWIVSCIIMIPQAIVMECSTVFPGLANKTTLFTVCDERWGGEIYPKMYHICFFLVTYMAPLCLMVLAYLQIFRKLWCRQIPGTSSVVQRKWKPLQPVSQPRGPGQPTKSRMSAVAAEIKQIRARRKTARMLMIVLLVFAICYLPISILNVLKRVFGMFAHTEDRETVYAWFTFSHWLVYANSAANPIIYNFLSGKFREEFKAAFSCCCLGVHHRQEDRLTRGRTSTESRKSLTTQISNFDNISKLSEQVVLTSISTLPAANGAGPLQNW

Compound	OX2 pKi (SPA binding) ([1]; Table 2, [3H]EMPA 2 nM)	OX1 pKi (SPA binding) ([2]; Table 2, [3H]SB-674042 2 nM)	OX2 pKi (SPA binding) ([1]; Table 1, [3H]EMPA 2 nM)	OX1 pKi (SPA binding) ([2]; Table 1, [3H]SB-674042 2 nM)
Cc1nc(C(=O)N2C3CC(C3)[C@H](C)C2COc2ccc(F)cc2)c(-n2nccn2)s1 (mixture of isomers) [Example 126, trans-3-[(4-fluorophenoxy)methyl]-4-methyl-2-[2-methyl-5-(2H-1,2,3-triazol-2-yl)-1,3-thiazole-4-carbonyl]-2-azabicyclo[3.1.1]heptane]	5.7	7.39	–	–
Cc1nc(C(=O)N2C(COc3ccc(C(F)(F)F)cn3)CC3CC2C3)c(-c2ccccc2)s1 (stereo not drawn) [Example 55]	–	–	6.49	7.38
Cc1ccc(-n2nccn2)c(C(=O)N2C3CC(C3)[C@@H](C)C2CNc2ccc3ccccc3n2)n1 (mixture of isomers) [Example 161, cis-N-({4-methyl-2-[6-methyl-3-(2H-1,2,3-triazol-2-yl)pyridine-2-carbonyl]-2-azabicyclo[3.1.1]heptan-3-yl}methyl)quinolin-2-amine]	5.2	7.32	–	–
Cc1ccc(-n2nccn2)c(C(=O)N2C3CC(C3)[C@H](C)C2CNc2nc3ccc(F)cc3s2)n1 (stereo partly drawn) [Example 147]	6.66	7.57	–	–
C[C@@H]1C2CC(C2)N(C(=O)c2cc(F)ccc2-n2nccn2)C1CNc1ccc(C(F)(F)F)cn1 (mixture of isomers) [Example 190, cis-N-({2-[5-fluoro-2-(2H-1,2,3-triazol-2-yl)benzoyl]-4-methyl-2-azabicyclo[3.1.1]heptan-3-yl}methyl)-5-(trifluoromethyl)pyridin-2-amine]	4.98	7.8	–	–
C[C@@H]1C2CC(C2)N(C(=O)c2cc(Cl)ccc2-n2nccn2)C1CNc1cnc2ncccc2n1 (mixture of isomers) [Example 206, cis-N-({2-[5-chloro-2-(2H-1,2,3-triazol-2-yl)benzoyl]-4-methyl-2-azabicyclo[3.1.1]heptan-3-yl}methyl)pyrido[2,3-b]pyrazin-2-amine]	5.06	7.79	–	–
C[C@@H]1C2CC(C2)N(C(=O)c2cc(Cl)ccc2-n2nccn2)C1CNc1cnc2cc(F)ccc2n1 (mixture of isomers) [Example 207, cis-N-({2-[5-chloro-2-(2H-1,2,3-triazol-2-yl)benzoyl]-4-methyl-2-azabicyclo[3.1.1]heptan-3-yl}methyl)-6-fluoroquinoxalin-2-amine]	6.44	8.46	–	–
Cc1ccc(-n2ncc(C)n2)c(C(=O)N2C3CC(C3)[C@@H](C)C2COc2ccc(F)cc2)n1 (mixture of isomers) [Example 144, cis-3-[(4-fluorophenoxy)methyl]-4-methyl-2-[6-methyl-3-(4-methyl-2H-1,2,3-triazol-2-yl)pyridine-2-carbonyl]-2-azabicyclo[3.1.1]heptane]	6.83	7.96	–	–
Cc1nc(C(=O)N2C(COc3ccc4ccccc4n3)CC3CC2C3)c(-c2ccccc2)s1 (stereo not drawn) [Example 56]	–	–	7.12	7.98
Cc1ccc(-n2nccn2)c(C(=O)N2C3CC(C3)[C@H](C)C2COc2ccc(Cl)cc2)n1 (stereo partly drawn) [Example 112, trans-3-[(4-chlorophenoxy)methyl]-4-methyl-2-[6-methyl-3-(2H-1,2,3-triazol-2-yl)pyridine-2-carbonyl]-2-azabicyclo[3.1.1]heptane]	–	–	5.92	7.83
Cc1ccc(-n2nccn2)c(C(=O)N2C3CC(C3)[C@H](C)C2COc2ccc(Cl)cn2)n1 (stereo partly drawn) [Example 102, trans-3-{[(5-chloropyridin-2-yl)oxy]methyl}-4-methyl-2-[6-methyl-3-(2H-1,2,3-triazol-2-yl)pryidine-2-carbonyl]-2-azabicyclo[3.1.1]heptane]	–	–	5.71	7.23
Cc1ccc(-n2nccn2)c(C(=O)N2C3CC(C3)[C@@H](C)C2CNc2nc3ccccc3o2)n1 (single isomer, unassigned) [Example 226, N-{[(3S,4R) or (3R,3S)-4-methyl-2-[6-methyl-3-(2H-1,2,3-triazol-2-yl)pyridine-2-carbonyl]-2-azabicyclo[3.1.1]heptan-3-yl]methyl}-1,3-benzoxazol-2-amine]	5.39	8.46	–	–
Cc1ccc(-n2nccn2)c(C(=O)N2C3CC(C3)[C@@H](C)C2CNc2cnc3cc(F)c(F)cc3n2)n1 (mixture of isomers) [Example 201, cis-6.7-difluoro-N-({4-methyl-2-[6-methyl-3-(2H-1,2,3-triazol-2-yl)pyridine-2-carbonyl]-2-azabicyclo[3.1.1]heptan-3-yl}methyl)quinoxalin-2-amine]	6.55	7.97	–	–
Cc1nc(C(=O)N2C3CC(C3)[C@H](C)C2COc2ccc(F)cc2)c(-c2ccccn2)s1 (mixture of isomers) [Example 123, trans-3-[(4-fluorophenoxy)methyl]-4-methyl-2-[2-methyl-5-(pyridin-2-yl)-1,3-thiazole-4-carbonyl]-2-azabicyclo[3.1.1]heptane]	6.12	8.02	–	–
Cc1cnc(NCC2[C@H](C)C3CC(C3)N2C(=O)c2nc(C)ccc2-n2nccn2)cn1 (mixture of isomers) [Example 216, cis-5-methyl-N-({4-methyl-2-[6-methyl-3-(2H-1,2,3-triazol-2-yl)pyridine-2-carbonyl]-2-azabicyclo[3.1.1]heptan-3-yl}methyl)pyrazin-2-amine]	4.62	6.94	–	–
C[C@@H]1C2CC(C2)N(C(=O)c2cc(F)ccc2-n2nccn2)C1CNc1cnc(C(F)(F)F)cn1 (mixture of isomers) [Example 221, cis-N-({2-[5-fluoro-2-(2H-1,2,3-triazol-2-yl)benzoyl]-4-methyl-2-azabicyclo[3.1.1]heptan-3-yl}methyl)-5-(trifluoromethyl)pyrazin-2-amine]	4.94	7.73	–	–
Cc1ccc(-c2ccccn2)c(C(=O)N2C3CC(C3)[C@@H](C)C2COc2ccc(F)cn2)n1 (mixture of isomers) [Example 131, cis-2′-(3-{[(-fluoropyridin-2-yl)oxy]methyl}-4-methyl-2-azabicyclo[3.1.1]heptane-2-carbonyl)-6′-methyl-2,3′-bipyridine]	6.1	7.02	–	–
Cc1ccc(-n2nccn2)c(C(=O)N2C3CC(C3)[C@@H](C)C2COc2ccc(Cl)cn2)n1 (stereo partly drawn) [Example 99, cis-3-{[(5-chloropyridin-2-yl)oxy]methyl}-4-methyl-2-[6-methyl-3-(2H-1,2,3-triazol-2-yl)pyridine-2-carbonyl]-2-azabicyclo[3.1.1]heptane]	–	–	6.18	7.37
Cc1ccc(-n2nccn2)c(C(=O)N2C3CC(C3)[C@H](C)C2CNc2nc3ccccc3s2)n1 (stereo partly drawn) [Example 150, trans-N-({4-methyl-2-[6-methyl-3-(2H-1,2,3-triazol-2-yl)pyridine-2-carbonyl]-2-azabicyclo[3.1.1]heptan-3-yl}methyl)-1,3-benzothiazol-2-amine]	6.14	7.5	–	–
C[C@@H]1C2CC(C2)N(C(=O)c2cc(Cl)ccc2-n2nccn2)C1CNc1ncc(C(F)(F)F)cn1 (stereo partly drawn) [Example 239, cis-N-({2-[5-chloro-2-(2H-1,2,3-triazol-2-yl)benzoyl]-4-methyl-2-azabicyclo[3.1.1]heptan-3-yl}methyl)-5-(trifluoromethyl)pyrimidin-2-amine]	5.51	8.04	–	–
Cc1nc(C(=O)N2C(COc3ccc(Cl)cc3)CC3CC2C3)c(-c2ccccc2)s1 (stereo not drawn) [Example 49]	–	–	6.81	7.88
